Measurements taken from patent US20240002395A1, “COMPOUNDS AND THEIR USE FOR TREATING NEUROPATHIC PAIN” (The Johns Hopkins University, priority 2020, published 2024).

How the values were obtained:
[1] = intrathecal injection; cited from earlier work
human MrgprX1 = biological target: T1, human MrgprX1 (Homo sapiens, UniProt Q96LB2); assay: MrgprX1 positive allosteric modulator (PAM) calcium FLIPR assay in HEK293 cells; assay type: cell-based; details: PAM activity in presence of EC20 concentration of BAM8-22; HEK293 cells stably transfected with human MrgprX1
T1 construct: expressed in transfected cells
Outline: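 Fluo-4-loaded HEK293 cells stably expressing human MrgprX1 preincubated 2.5 min with compound, then challenged with BAM8-22 at its EC20; calcium read on FLIPR for 2 min. EC50 is the half-maximal response, normalised between BAM8-22 EC20 (minimum) and 250 nM BAM8-22 (maximum).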

[2] = Metabolic stability in mouse liver microsomes; assay type: in vitro ADME; details: mouse liver microsomes 0.5 mg/mL, NADPH, compound 5 μM, 60 min
Method: (§1) The metabolic stability was evaluated using mouse liver microsomes. For the cytochrome P450 (CYP)-mediated metabolism, the reaction was carried out with 100 mM potassium phosphate buffer, pH 7.4, in the presence of NADPH regenerating system (1.3 mM NADPH, 3.3 mM glucose 6-phosphate, 3.3 mM MgCl2, 0.4 U/mL glucose-6-phosphate dehydrogenase, 50 μM sodium citrate). Reactions, in triplicate, were initiated by addition of the liver microsomes to the incubation mixture (compound final concentration was 5 μM; 0.5 mg/mL microsomes). After 60 min of incubation, aliquots of the mixture were removed and the reaction quenched by addition of three times the volume of ice-cold acetonitrile spiked with the internal standard. Compound disappearance was monitored over time using a liquid chromatography and tandem mass spectrometry (LC/MS/MS) method.

[3] = Metabolic stability in human liver microsomes; assay type: in vitro ADME
Method: [The procedure below names another species; the source lists this species under the same test.] as §1

[4] = In vivo oral pharmacokinetics in mice; details: 100 mg/kg oral; for Tmax: male, CD-1, mouse
Method: Male CD-1 mice between 25 and 30 g were obtained from Harlan, and maintained on a 12-h light-dark cycle with ad libitum access to food and water. Three animals were used per time-point for each treatment group. Compound 7a was dissolved in 5% dimethyl acetamide, 10% Tween80, 10% Cremophor EL, 25% PEG400, and 50% water, and administered to male mice as a single oral dose by oral gavage of 100 mg/kg. The mice were sacrificed at various time points post-drug administration. Animals were euthanized with CO2, and blood samples were collected in heparinized microtubes by cardiac puncture. Brain and spinal cord tissues were dissected and immediately flash frozen (−80° C.). Blood samples were spun at 2,000×g for 15 min, plasma was removed and stored at −80° C. until LC-MS analysis. Prior to extraction, frozen samples were thawed on ice. The calibration curves were developed using plasma and brain from naïve animals as a matrix. Plasma samples (50 μL), were processed using a single liquid extraction method by addition of 300 μL of acetonitrile as with internal standard (losartan: 0.5 μM), followed by vortex mixing for 30 sec and then centrifugation at 10,000×g for 10 min at 4° C. Fifty microliter of the supernatant is diluted with 50 μL of water and transferred to 250 μL polypropylene autosampler vials sealed with a Teflon cap. For brain and spinal cord tissue analysis, samples were weighed in the range of (80-100 mg) to which 2-volumes of acetonitrile as with internal standard (losartan: 0.5 μM) was added and homogenized for extraction of the analyte. Samples were vortex mixed for 1 min and centrifuged as above. A 20 μL aliquot of supernatant was diluted with 20 μL of water and transferred to 250 μL polypropylene autosampler vials sealed with a Teflon cap. A volume of 3 μL was injected onto the ultra-performance liquid chromatography (UPLC) instrument for quantitative analysis by LC-MS/MS. Samples were analyzed on a Thermo Scientific Accela UPLC system coupled to Accela open autosampler at ambient temperature with an Agilent Eclipse Plus column (100×2.1 mm i.d.) packed with a 1.8 μm C18 stationary phase. The autosampler was temperature controlled and operated at 10° C. The mobile phase used for the chromatographic separation was composed of acetonitrile/water containing 0.1% formic acid and with a flow rate of 0.4 mL/min for 4.5 min using gradient elution. The column effluent was monitored using TSQ Vantage triple-quadrupole mass-spectrometric detector, equipped with an electrospray probe set in the positive ionization mode. Samples were introduced into the ionization source through a heated nebulized probe (350° C.).

[5] = tested on: MrgprX1 mice after sciatic CCI; assay: Chronic constrictive injury (CCI) model, heat hypersensitivity (Hargreaves test); assay type: in vivo; details: 100 mg/kg oral gavage
Method: Compound 7a was examined for its ability to attenuate heat hypersensitivity in MrgprX1 mice after receiving sciatic CCI, according to the previously described methods (Proc Natl Acad Sci USA. 2017 Mar. 7; 114(10):E1996-E2005). Paw withdrawal latency (PWL) to noxious heat stimuli was measured with the Hargreaves test. The results are summarized in FIG. 2 (** P<0.01, *** P<0.001 vs. vehicle; ##P<0.01, ###P<0.001, ####P<0.0001 vs. pre-drug. Two-way mixed-model ANOVA with Bonferroni post hoc test. Data are expressed as mean+SD).

T1 sequence (Q96LB2 whole entry): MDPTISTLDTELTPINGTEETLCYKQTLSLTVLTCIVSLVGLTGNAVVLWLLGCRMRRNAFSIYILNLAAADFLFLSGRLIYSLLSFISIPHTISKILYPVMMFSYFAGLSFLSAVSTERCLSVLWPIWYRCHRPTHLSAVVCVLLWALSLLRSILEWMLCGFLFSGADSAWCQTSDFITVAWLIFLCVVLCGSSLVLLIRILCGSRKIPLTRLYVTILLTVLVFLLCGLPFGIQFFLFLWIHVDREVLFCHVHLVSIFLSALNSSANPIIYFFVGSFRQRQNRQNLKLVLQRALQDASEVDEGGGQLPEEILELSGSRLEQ

CCOc1ccccc1NC(=O)c1ccccc1NS(=O)(=O)C1CC1 [ML382, 2-(cyclopropanesulfonamido)-N-(2-ethoxyphenyl)benzamide]
efficacy in preclinical models of pain [1]: showed efficacy

CC(C)(C)c1sc2ncnc(Oc3ccccc3OC(F)(F)F)c2c1-c1ccc(Cl)c(Cl)c1 [Compound 7a, 6-tert-butyl-5-(3,4-dichlorophenyl)-4-(2-(trifluoromethoxy)phenoxy)thieno[2,3-d]pyrimidine]
EC50 (human MrgprX1): 100 nM | % remaining after 1-h incubation, Mouse [2]: 25% | % remaining after 1-h incubation, Human [3]: >95% | AUC0-last ([4]; Brain): 2.37 ± 0.03 µM·h | Cmax ([4]; Brain): 0.82 ± 0.05 µM | Cmax ([4]; Plasma): 39 ± 5.06 µM | Cmax ([4]; Spinal cord): 4.6 ± 0.6 µM | Tmax ([4]; Brain): 1.67 ± 0.33 h | Tmax ([4]; Plasma): 1.67 ± 0.33 h | Tmax ([4]; Spinal cord): 1.17 ± 0.44 h | ipsilateral paw withdrawal latency (PWL) to noxious heat ([5]; 1-2 hours after dosing, day 12 and day 26 post-CCI, vs pre-drug level): significantly increased from pre-drug level | contralateral paw withdrawal latency (PWL) to noxious heat ([5]; compared to pre-drug baseline or vehicle-treated group): no significant changes
